The test system of series [1] is HT29 cells. Nature of the series: Antiproliferation assay - oxygen dependence. The class given is cell-based. To be noted: Homo sapiens. From the text: . […] The calculated IC50 values (μM) are tabulated in Table Y1 (H460 cells) or Table Y2 (HT29 cells) below.
The nature of series [2]: logP (partitioning between octanol and water). The class given is physicochemical. Particulars: read-out: logP. An excerpt: As used herein “LogP” means a measure of lipophilicity of a substance determined based on the partitioning of the substance betwen octanol and water.
The test system of a further series is spheroids. Nature of the series: Spheroid combination with cisplatin or daunorubicin, clonogenic survival. To be noted: Homo sapiens, 2 h exposure. The class given is cell-based, human. The method, then: The phosphoramidate alkylator prodrug was combined simultaneously with cisplatin or daunorubicin and the spreroids exposed for 2 h to the combination, followed by measurement of clonogenic survival.

For series [3], the system named is rat (RLM) liver microsomal proteins. Nature of the series: Metabolic stability in liver microsomal protein. The class given is in vitro ADME. To be noted: 5 μM. Background: Microsomes from liver hold many membrane-bound enzymes, among them those of drug oxidation.
The next series deals with CYP1A2 (Homo sapiens, UniProt P05177). Nature of the series: in vitro. To be noted: pH 7.4, probe phenacetin. Here is the method: (§1) A control reaction with no inhibitor was also prepared. After a suitable incubation at 37° C., the reactions were terminated by the addition of […] of 10% formic acid in water ([…] of acetonitrile for 2C19). […] Each assay was performed in duplicate.

The target of a further series is CYP2D6 (Homo sapiens, UniProt P10635). Nature of the series: in vitro. Particulars: pH 7.4, probe dextromethorphan. Here is the method:
as §1

A further series addresses CYP3A4 (Homo sapiens, UniProt P08684). Nature of the series: in vitro. The method, then: as §1
Series [4] deals with NCI H460 xenograft. Nature of the series: NCI H460 non small cell lung carcinoma xenograft mouse model (Example 48). The class given is in vivo. Particulars: day 29, vs vehicle. Here is the method:
Female CB17/SCID mice (purchased from Charles River, Cambridge, Mass.), 7-8 weeks of age, were allowed to acclimatize for at least three days, and handled under pathogen-free conditions. Human […] cell line NCI H460 was obtained from the American Type Culture Collection. The cell lines were cultured and harvested according to the procedure described in Example 47 and inoculated at 1×10^6 cells/animal in the peritoneal subcutaneous space. When the tumors grew to an average volume of 100 mm^3 (day 8), […], as tabulated in the table below: Compound 25 (2.5 mg/ml in 10% PEG; administration route—i.p.) and Taxol (1 mg/ml in 5% EtOH, 5% Cremophor and 90% saline; administration—i.v. 2 h after administration of Compound 25). The body weight and tumor volumes were measured as described in Example 47 above.
Results are presented in Table X2 based on tumor volume measurement on day 29 when vehicle treated mice had reached a volume of 946 mm^3. Groups of 5 mice receiving saline or no treatment were added in order to indicate any vehicle effects but are not used for comparisons in this analysis.

Series [5] relates to NCI H460 xenograft. Nature of the series: H460 xenograft mouse model, 150 mg/kg weekly with CDDP (Example 53). Type of series: in vivo. The method, then:
Female CB17/SCID mice (purchased from Charles River, Cambridge, Mass.), 7-8 weeks of age, were allowed to acclimatize for at least three days, and handled under pathogen-free conditions. Human non-small cell lung cell line NCI H460 was obtained from the American Type Culture Collection. The cell lines were cultured and harvested as described in Example 47 and inoculated at 3×10^6 cells/animal in the peritoneal subcutaneous space. When the tumors grew to an average volume of 100 mm^3, treatment was initiated in which groups of 10 mice received vehicle (Group 1), CDDP at 6 mg/kg (IV one time, Group 2), Compound 25 at 150 mg/kg in saline, once a week for two weeks (i.p., Group 3), or the combination of the two agents (Group 4).

For series [6], the system named is HT29 cells. Nature of the series: Clonogenic assay - oxygen dependence. To be noted: Homo sapiens.
A further series deals with UV41. Nature of the series: Clonogenic survival - DNA mutant repair cells. To be noted: Cricetulus griseus.
Another series is described as follows: in vivo. Particulars: CD-1, mouse, 50 mg/kg.
A further series has as its system HT29. Nature of the series: Clonogenic assay, hypoxia vs normoxia (Table 1B). Particulars: Homo sapiens, HT-29, read-out: HT29 C H (clonogenic IC90, hypoxia).
Another series relates to human H460 cells. Nature of the series: Clonogenic survival assay, hypoxia vs normoxia (Table 1A). To be noted: for IC90: Homo sapiens.

Read-outs that look alike come from different tables or passages of the source.

Chain of CYP3A4 (P08684 whole entry): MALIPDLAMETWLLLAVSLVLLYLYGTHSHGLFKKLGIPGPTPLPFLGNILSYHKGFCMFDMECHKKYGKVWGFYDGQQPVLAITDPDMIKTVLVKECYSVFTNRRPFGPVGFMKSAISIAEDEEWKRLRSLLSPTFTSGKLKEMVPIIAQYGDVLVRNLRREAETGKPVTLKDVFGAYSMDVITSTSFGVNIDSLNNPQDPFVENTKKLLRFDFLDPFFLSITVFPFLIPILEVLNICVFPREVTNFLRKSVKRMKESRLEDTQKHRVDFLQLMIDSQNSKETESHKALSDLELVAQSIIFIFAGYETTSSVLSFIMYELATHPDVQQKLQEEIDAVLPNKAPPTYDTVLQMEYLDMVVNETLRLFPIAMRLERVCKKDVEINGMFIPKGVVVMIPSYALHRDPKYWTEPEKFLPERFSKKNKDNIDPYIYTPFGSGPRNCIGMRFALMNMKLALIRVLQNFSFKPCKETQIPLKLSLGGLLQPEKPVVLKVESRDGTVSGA
Chain of CYP2D6 (P10635 whole entry): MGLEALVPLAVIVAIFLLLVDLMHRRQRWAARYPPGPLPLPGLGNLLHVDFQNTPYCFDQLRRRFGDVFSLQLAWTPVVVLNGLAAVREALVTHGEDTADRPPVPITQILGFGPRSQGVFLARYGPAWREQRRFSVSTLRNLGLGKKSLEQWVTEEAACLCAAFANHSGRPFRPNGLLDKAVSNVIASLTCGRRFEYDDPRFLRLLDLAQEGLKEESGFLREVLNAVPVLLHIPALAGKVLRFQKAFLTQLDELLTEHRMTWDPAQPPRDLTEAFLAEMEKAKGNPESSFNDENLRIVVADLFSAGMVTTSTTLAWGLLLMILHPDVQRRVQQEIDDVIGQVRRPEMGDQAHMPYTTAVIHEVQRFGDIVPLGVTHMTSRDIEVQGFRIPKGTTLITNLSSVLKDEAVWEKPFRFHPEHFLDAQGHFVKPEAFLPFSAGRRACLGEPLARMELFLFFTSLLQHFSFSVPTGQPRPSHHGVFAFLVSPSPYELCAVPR
Chain of CYP1A2 (P05177 whole entry, species assumed): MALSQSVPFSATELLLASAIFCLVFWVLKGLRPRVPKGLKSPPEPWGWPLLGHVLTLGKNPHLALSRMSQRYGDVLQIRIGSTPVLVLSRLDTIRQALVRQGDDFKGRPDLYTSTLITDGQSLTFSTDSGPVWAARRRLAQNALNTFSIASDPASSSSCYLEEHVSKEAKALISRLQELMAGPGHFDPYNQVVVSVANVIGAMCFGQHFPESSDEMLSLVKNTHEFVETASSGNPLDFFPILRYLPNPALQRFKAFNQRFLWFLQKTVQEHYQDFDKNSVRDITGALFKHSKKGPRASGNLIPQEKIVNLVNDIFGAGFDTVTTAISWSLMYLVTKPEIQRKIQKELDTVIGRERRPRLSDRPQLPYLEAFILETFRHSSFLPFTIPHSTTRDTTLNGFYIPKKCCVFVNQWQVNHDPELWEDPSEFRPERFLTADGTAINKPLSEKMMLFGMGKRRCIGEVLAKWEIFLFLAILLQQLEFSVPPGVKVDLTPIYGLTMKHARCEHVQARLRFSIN

As for `Cn1c(COP(=O)(NCCBr)NCCBr)cnc1[N+](=O)[O-]` [Compound 25], the IC50 – broadly, the midpoint of a concentration-inhibition curve – in the series on HT29 cells [1] (HT-29, read-out: IC50 in HT29 cells, 0.6% O2) is 25 µM; with HT29 cells [1] (HT-29, read-out: IC50 in HT29 cells, Air), more than 100 µM; with HT29 cells [1] (HT-29, read-out: IC50 in HT29 cells, N2), 2 µM; with spheroids (read-out: IC50 (μM), spheroids, cisplatin combination experiment) it was 12 µM; with spheroids (read-out: IC50 (μM), spheroids, daunorubicin combination experiment), 9 µM; against CYP1A2, more than 50 µM. Further, the IC50 on CYP2D6 is more than 50 µM; against CYP3A4 (pH 7.4, IC50 3A4 Midazolam, probe substrate midazolam), more than 50 µM; at CYP3A4 (pH 7.4, IC50 3A4 Nifedipine, probe substrate nifedipine), more than 50 µM; against CYP3A4 (pH 7.4, IC50 3A4 Testosterone, probe substrate testosterone) it was more than 50 µM. In addition, the logP (in general, a log measure of how a compound divides between an organic and an aqueous phase) in [2] was less than 0. Moreover, the “Metabolic stability (% at 30 min) RLM” value in series [3] (Table 1, first study) is given as 84%; in [3] (Table 2A, second study), 137%. Besides, the “% Inhibition vs Group 2” value is recorded as 50.1% in the series with NCI H460 xenograft [4] (Group 3: Compound 25 25 mg/kg (q1d × 5)/week × 2 weeks), 52% in the series with NCI H460 xenograft [4] (Group 4: Compound 25 50 mg/kg (q2d × 3)/week × 2 weeks) and 46.7% in the series on NCI H460 xenograft [4] (Group 5: Compound 25 100 mg/kg (q7d × 1)/week × 2 weeks). Also, in the series with NCI H460 xenograft [5] (150 mg/kg once a week), the body weight entry was “Little change in body weight”. For the same compound, the “tumor growth during the two week period of dosing” value in the series with NCI H460 xenograft [5] (150 mg/kg once a week for two weeks, i.p.) is “complete inhibition of tumor growth”. In addition, the IC90 (commonly the point of the concentration-response curve where the effect stands at 90%) in the series on HT29 cells [6] (HT-29, read-out: IC90 HT29 0.6% O2) worked out at 3 µM; in the series with HT29 cells [6] (HT-29, read-out: IC90 HT29 Air), 40 µM; in the series on HT29 cells [6] (HT-29, read-out: IC90 HT29 N2) it was 0.2 µM; in the series with UV41 (read-out: IC90 UV41 Air), 17 µM; in the series on UV41 (read-out: IC90 UV41 N2) it was 0.02 µM.

As to `Cn1c(COP(=O)(NCCCl)NCCCl)cnc1[N+](=O)[O-]` [Compound 36], the AUC – broadly, the area under the concentration-time curve, a measure of exposure – in the series “in vivo” (ip) was 1440 µg·h/mL; in “in vivo” (iv), 646 µg·h/mL. Also, the Cmax (as a rule, the highest concentration seen after dosing) in the series “in vivo” (ip) was found to be 44000 ng/mL; in the series “in vivo” (iv), 27700 ng/mL. In addition, the time to peak (Tmax) (as a rule, the time at which the peak concentration occurs) in the series “in vivo” (ip) is 15 min; in the series “in vivo” (iv), 5 min. Further, the half-life (usually how long it takes for the measured level to halve) in the series “in vivo” (ip) is 11 min; in “in vivo” (iv), 14.1 min. In addition, the IC90 in the series with HT29 was 3 µM; in the series with human H460 cells (NCI-H460, read-out: Hypoxia C (clonogenic IC90)), 0.2 µM; in the series on human H460 cells (NCI-H460, read-out: Normoxia C (clonogenic IC90)), more than 100 µM. In the series on human H460 cells (ratio of IC90 in normoxia and hypoxia), the “HCR C” value is given as more than 500.

The values above are taken from patent publication US8507464B2, “Phosphoramidate alkylator prodrugs” (Threshold Pharmaceuticals, Inc., priority 2005, dated 2013).
